The test has as its system M. tuberculosis H37Rv growth inhibition with meropenem. Put plainly: dose response, H37Rv, with and without meropenem (AID 434987).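 Also: growth over 7 days at 37 °C before Alamar Blue read on day 9.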
Setting [1] is: M. tuberculosis H37Rv growth inhibition, measured here: IC50 without meropenem.
Where [2] appears, read: M. tuberculosis H37Rv growth inhibition, measured here: IC90 without meropenem.
The mark [3] stands for this setting: measured here: IC90 with meropenem.

Activity calls are given as the source filed them. No rule for the calls is given here.

As to `CC(C)(C)c1ccc(OCC(=O)N/N=C/c2cc(Br)ccc2OC(=O)c2ccco2)cc1`, the IC50 was 82.7 µM (inactive). Also, the IC50 under setting [1] is greater than 100 µM. This compound showed a concentration for an effect of 90% (IC90) under setting [2] greater than 100 µM. Moreover, the IC90 under setting [3] is greater than 100 µM.
With `COc1ccccc1/C=N/NC(=S)Nc1cccnc1`, the IC50 was 31.1 µM. Under setting [1], this compound registered an IC50 greater than 100 µM. The IC90 under setting [2] is greater than 100 µM. The compound further returned an IC90 under setting [3] greater than 50 µM.
As to `COc1cc(C(=S)N2CCOCC2)ccc1OC(=O)c1ccc([N+](=O)[O-])cc1[N+](=O)[O-]`, the IC50 was 3.24 µM (inactive). The same compound yielded an IC50 under setting [1] of 6.01 µM. This compound displayed a 90% effect concentration (IC90) under setting [2] of 7.13 µM. The same compound had an IC90 under setting [3] of 5.92 µM.
Taken in the same sequence, the figures for `CCOC(=O)N1CCN(C(=O)CSc2nnc(-c3ccccc3OC)o2)CC1` were 6.68 µM, 30 µM, 62.6 µM and greater than 100 µM.
For `COc1ccc(Cl)cc1NC(=O)CN(C)C(=O)c1ccc(N2CCCCCC2)c([N+](=O)[O-])c1`, in that order: > 100 µM (inactive), greater than 100 µM, greater than 100 µM and greater than 100 µM.
For `CC1CCCC(NC(=O)COC(=O)c2cccc(NS(=O)(=O)/C=C/c3ccccc3)c2)C1C` (stereo not drawn), in that order: > 100 µM (inactive), greater than 100 µM, greater than 100 µM and greater than 100 µM.
As for `O=C(CSc1nnc(COc2ccccc2)o1)N1CCN(c2ccccc2)CC1`, the IC50 is > 100 µM (inactive). This compound also registered an IC50 under setting [1] greater than 100 µM. Under setting [2], this compound registered a concentration for an effect of 90% (IC90) greater than 100 µM. In addition, under setting [3], the concentration for an effect of 90% (IC90) was greater than 100 µM.
Take `Clc1ccc(CSc2ccc(-c3cccnc3)nn2)cc1`: the IC50 is 40.1 µM. Moreover, under setting [1], the IC50 is greater than 100 µM. Also, under setting [2], the 90% effect concentration (IC90) is greater than 100 µM. The same compound registered an IC90 under setting [3] greater than 100 µM.
For the compound `CN(C)S(=O)(=O)c1ccc(C(=O)OCC2CC2(Cl)Cl)cc1` (stereo not drawn), the IC50 is > 100 µM (inactive). The compound further returned a 50% inhibitory concentration (IC50) under setting [1] greater than 100 µM. Moreover, the IC90 under setting [2] was greater than 100 µM. For the same compound, the IC90 under setting [3] was greater than 100 µM.
Regarding `Cc1onc(-c2c(Cl)cccc2Cl)c1/C(N)=N/OC(=O)C1CC1`, the IC50 was 2.05 µM. Also, the IC50 under setting [1] was greater than 100 µM. Besides, under setting [2], the IC90 is greater than 100 µM. In addition, under setting [3], the IC90 is greater than 25 µM.
As for `CC(/C=N/NC(=O)c1cc(C(C)(C)C)[nH]n1)=C\c1ccccc1`, the IC50 is > 100 µM (inactive). Also, the half-maximal inhibitory concentration (IC50) under setting [1] is greater than 100 µM. Further, the 90% effect concentration (IC90) under setting [2] is greater than 100 µM. The same compound came in with an IC90 under setting [3] greater than 100 µM.
Regarding `N/C(=N\c1nc2ccccc2o1)NC(=O)c1ccccc1NC(=O)c1ccccc1`, the IC50 was > 100 µM (inactive). This compound also gave an IC50 under setting [1] greater than 100 µM. This compound came in with a concentration for an effect of 90% (IC90) under setting [2] greater than 100 µM. This compound also registered an IC90 under setting [3] greater than 100 µM.
On to `CC(C)(C)c1nnc2sc(SCC(=O)c3cccs3)nn2c1=O`, for which the 50% inhibitory concentration (IC50) is 19.3 µM. This compound showed an IC50 under setting [1] greater than 100 µM. Further, under setting [2], the concentration for an effect of 90% (IC90) is greater than 100 µM. Under setting [3], the IC90 is greater than 100 µM.
Turning to `Cc1c(-c2ccccc2)cnc2c(C)cccc12`, the IC50 is 59.9 µM (inactive). The half-inhibitory concentration (IC50) under setting [1] was determined as 95.6 µM. The IC90 under setting [2] is greater than 100 µM. This compound registered an IC90 under setting [3] greater than 100 µM.
Take `O=C(CC12CC3CC(CC(C3)C1)C2)NCc1ccc(F)cc1`: the half-inhibitory concentration (IC50) is 7.43 µM. The same compound registered a half-inhibitory concentration (IC50) under setting [1] greater than 100 µM. Also, the 90% effect concentration (IC90) under setting [2] is greater than 100 µM. Moreover, the concentration for an effect of 90% (IC90) under setting [3] amounted to 10.4 µM.
As for `CCOC(=O)C1CSC(CC(=O)Nc2ccc(Cl)c(Cl)c2)C(=O)N1` (stereo not drawn), the half-inhibitory concentration (IC50) was 10.8 µM. The compound also came in with a half-inhibitory concentration (IC50) under setting [1] of 47.7 µM. The compound further had an IC90 under setting [2] of 54.3 µM. The same compound registered a 90% effect concentration (IC90) under setting [3] of 35.4 µM.
With `CCOC(=O)c1c(NC(=O)COC(=O)c2ncc(Cl)c(Cl)c2Cl)sc(C(=O)N(C)C)c1C`, the IC50 was 24.8 µM (inactive). The IC50 under setting [1] is 47.3 µM. Moreover, the IC90 under setting [2] came out at 53.4 µM. Further, the concentration for an effect of 90% (IC90) under setting [3] worked out at 27.7 µM.
With `CCOC(=O)Cn1c(=NC(=O)C2CC2)sc2c(C)cc(C)cc21`, the 50% inhibitory concentration (IC50) is 9.84 µM. Under setting [1], this compound yielded a half-maximal inhibitory concentration (IC50) greater than 100 µM. Under setting [2], this compound displayed a concentration for an effect of 90% (IC90) greater than 100 µM. Under setting [3], this compound came in with a concentration for an effect of 90% (IC90) greater than 100 µM.
Turning to `Cc1cccc(C)c1OCC(=O)NNC(=O)CNC(=O)c1ccc(OC(F)F)cc1`, the IC50 is 88.3 µM (inactive). This compound also displayed an IC50 under setting [1] greater than 100 µM. Also, the IC90 under setting [2] was greater than 100 µM. The compound also came in with a 90% effect concentration (IC90) under setting [3] of 98.1 µM.
On to `COc1ccc(NC(=O)CCc2ccccc2)cc1NC(=O)c1ccco1`, for which the IC50 is > 100 µM (inactive). Under setting [1], this compound returned an IC50 greater than 100 µM. The IC90 under setting [2] was greater than 100 µM. The concentration for an effect of 90% (IC90) under setting [3] is greater than 100 µM.
With `N#Cc1c(-c2cccs2)cc(-c2ccccn2)nc1N`, the IC50 is 6.92 µM. The compound further returned an IC50 under setting [1] greater than 100 µM. The same compound had a 90% effect concentration (IC90) under setting [2] greater than 100 µM. The IC90 under setting [3] is greater than 100 µM.
Take `CC(=O)c1ccc(OCCCC(=O)OCC(=O)N2CCN(c3ccccc3)CC2)cc1`: the IC50 was 78.7 µM (inactive). The same compound displayed a 50% inhibitory concentration (IC50) under setting [1] greater than 100 µM. Under setting [2], the concentration for an effect of 90% (IC90) was greater than 100 µM. Further, under setting [3], the concentration for an effect of 90% (IC90) is greater than 100 µM.
